In patent US20240158446A1, “CYCLIC COMPOUND HAVING SELECTIVE INHIBITORY ACTION ON KRAS OVER HRAS AND NRAS” (CHUGAI SEIYAKU KABUSHIKI KAISHA, priority 2021, published 2024):
Read-outs that look alike come from different tables or passages of the source. Where a SMILES comes first, the peptide text is derived from it. Bridges are numbered along the chain shown (N, C = ends). [ ]: non-standard residue; d: D form. hPhe(3-Cl-4-CF3) = N[C@@H](CCc1ccc(C(F)(F)F)c(Cl)c1)C(=O)O; NPrPhe(4-CF3) = CCCN[C@@H](Cc1ccc(C(F)(F)F)cc1)C(=O)O; NMeGly(cPent) = CN[C@H](C(=O)O)C1CCCC1; Hyp = O=C(O)[C@@H]1C[C@@H](O)CN1; NMeD = CN[C@@H](CC(=O)O)C(=O)O; NMeL = CN[C@@H](CC(C)C)C(=O)O; Ac5c = NC1(C(=O)O)CCCC1; NEtG = CCNCC(=O)O; Sar = CNCC(=O)O

Tests used:
[1] = target: GDP-bound NRAS wild-type protein (Homo sapiens, UniProt P01111); test: Binding to NRAS by surface plasmon resonance (SPR), Single Cycle Kinetics; conditions: for NRAS/KRAS (ratio of KD value with respect to GDP-bound NRAS wild-type protein to KD value with respect to KRAS): SPR KD ratio NRAS/KRAS, class symbols
[2] = target: GDP-bound HRAS wild-type protein (Homo sapiens, UniProt P01112); test: Binding to HRAS by surface plasmon resonance (SPR), Single Cycle Kinetics; conditions: for HRAS/KRAS (ratio of KD value with respect to GDP-bound HRAS wild-type protein to KD value with respect to KRAS): SPR KD ratio HRAS/KRAS, class symbols
[3] = target: GDP-bound KRAS wild-type protein (Homo sapiens, UniProt P01116); test: Binding to KRAS by surface plasmon resonance (SPR), Single Cycle Kinetics; conditions: GDP-bound KRAS wild-type protein, read-out: KRAS KD
[4] = SPR Single Cycle Kinetics, 1:1 binding model
[5] = SPR, GDP-bound NRAS wild-type protein vs GDP-bound KRAS wild-type protein
[6] = SPR, GDP-bound HRAS wild-type protein vs GDP-bound KRAS wild-type protein
[7] = SPR, GDP-bound NRAS wild-type protein vs GDP-bound KRAS wild-type protein, KD ratio class
[8] = SPR, GDP-bound HRAS wild-type protein vs GDP-bound KRAS wild-type protein, KD ratio class
[9] = SPR, Single Cycle Kinetics, 1:1 binding model

Sequence of GDP-bound NRAS wild-type protein (P01111 whole entry): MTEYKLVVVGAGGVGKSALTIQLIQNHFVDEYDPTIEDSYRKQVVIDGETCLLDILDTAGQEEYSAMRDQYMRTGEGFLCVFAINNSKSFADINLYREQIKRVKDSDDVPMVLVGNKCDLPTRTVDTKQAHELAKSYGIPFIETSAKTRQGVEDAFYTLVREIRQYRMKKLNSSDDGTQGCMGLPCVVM
Sequence of GDP-bound KRAS wild-type protein (P01116 whole entry): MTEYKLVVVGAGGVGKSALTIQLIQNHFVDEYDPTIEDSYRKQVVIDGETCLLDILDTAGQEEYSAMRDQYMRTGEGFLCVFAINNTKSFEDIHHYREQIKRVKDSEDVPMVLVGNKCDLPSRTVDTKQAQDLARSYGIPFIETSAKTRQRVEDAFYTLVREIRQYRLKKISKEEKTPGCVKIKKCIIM
Sequence of GDP-bound HRAS wild-type protein (P01112 whole entry): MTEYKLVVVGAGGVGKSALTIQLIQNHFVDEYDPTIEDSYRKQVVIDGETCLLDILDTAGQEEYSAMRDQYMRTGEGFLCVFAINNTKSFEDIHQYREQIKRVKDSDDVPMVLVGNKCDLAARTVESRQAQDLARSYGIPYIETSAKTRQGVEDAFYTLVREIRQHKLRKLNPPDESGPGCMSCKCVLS

Row | Kd [3, 4] | Kd ([3]; SPR, Single Cycle Kinetics) | Structure (SMILES) | NRAS/KRAS (ratio of KD value for NRAS to KD value for KRAS) [1, 5] | HRAS/KRAS (ratio of KD value for HRAS to KD value for KRAS) [2, 6] | also measured
1 | 0.52 nM | – | CCO[C@@H]1C[C@H]2C(=O)NC3(CC(C)(C)C3)C(=O)N(C)[C@@H](CC(C)(C)C)C(=O)N(C)[C@H](C(=O)N(C)C)CC(=O)N(C)[C@@H](C(C)C)C(=O)N[C@@H]([C@@H](C)CC)C(=O)N(C)CC(=O)N(C)[C@H]3C/C=C\CCN(C3=O)[C@@H](Cc3ccc(C(F)(F)F)cc3)C(=O)N(C)CC(=O)N[C@@H](CCc3ccc(C(F)(F)F)c(OC)c3)C(=O)N2C1 [PP2773] | – | – | NRAS/KRAS (ratio of KD value with respect to GDP-bound NRAS wild-type protein to KD value with respect to KRAS) [1]: B (a compound having 3 or more and less than 10 is denoted as B); HRAS/KRAS (ratio of KD value with respect to GDP-bound HRAS wild-type protein to KD value with respect to KRAS) [2]: B (a compound having 3 or more and less than 10 is denoted as B)
2 | – | 0.18 nM | CCC[C@H]1C(=O)N[C@@H]([C@@H](C)CC)C(=O)N(C2CC2)CC(=O)N(C)[C@H]2C/C=C\CCN(C2=O)[C@@H](Cc2ccc(C(F)(F)F)cc2)C(=O)N(C)CC(=O)N[C@@H](CCc2ccc(C(F)(F)F)c(OC)c2)C(=O)N2C[C@H](OCC)C[C@H]2C(=O)NC2(CC(C)(C)C2)C(=O)N(C)[C@@H](C2CCCC2)C(=O)N(C)[C@H](C(=O)N(C)C)CC(=O)N1C [PP2105] | A (a compound having 10 or more and less than 20 is denoted as A) | A (a compound having 10 or more and less than 20 is denoted as A) | –
3 | – | – | CCC[C@H]1C(=O)N[C@@H]([C@@H](C)CC)C(=O)N(C)CC(=O)N(C)[C@H]2C/C=C\CCN(C2=O)[C@@H](Cc2ccc(C(F)(F)F)cc2)C(=O)N(C)CC(=O)N[C@@H](CCc2cc(F)c(C(F)(F)F)c(F)c2)C(=O)N2C[C@H](OCC)C[C@H]2C(=O)NC2(CCC2)C(=O)N(C)[C@@H](C2CCCC2)C(=O)N(C)[C@H](C(=O)N(C)CC)CC(=O)N1C [PP1304, (2S,8S,12R,14S,20S,23S,27S,30S,36S,38Z)-20-cyclopentyl-8-[2-[3,5-difluoro-4-(trifluoromethyl)phenyl]ethyl]-12-ethoxy-N-ethyl-N,4,19,22,26,32,35-heptamethyl-30-[(1S)-1-methylpropyl]-3,6,9,15,18,21,25,28,31,34,42-undecaoxo-27-propyl-2-[[4-(trifluoromethyl)phenyl]methyl]spiro[1,4,7,10,16,19,22,26,29,32,35-undecazatricyclo[34.5.1.0^10,14]dotetracont-38-ene-17,1′-cyclobutane]-23-carboxamide] | – | – | NRAS/KRAS (ratio of KD value for NRAS to KD value for KRAS) [1, 7]: A (a compound having 10 or more and less than 20 is denoted as A); HRAS/KRAS (ratio of KD value for HRAS to KD value for KRAS) [2, 8]: A (a compound having 10 or more and less than 20 is denoted as A); Kd [3, 9]: 0.07 nM
4 | – | 0.41 nM | CCC[C@H]1C(=O)N[C@@H]([C@@H](C)CC)C(=O)N(C)CC(=O)N(C)[C@H]2C/C=C\CCN(C2=O)[C@@H](Cc2ccc(C)cc2)C(=O)N(C)CC(=O)N[C@@H](CCc2ccc(C(F)(F)F)c(OC)c2)C(=O)N2C[C@H](OCC)C[C@H]2C(=O)NC2(CC(C)(C)C2)C(=O)N(C)[C@@H]([C@@H](C)CC)C(=O)N(C)[C@H](C(=O)N(C)C)CC(=O)N1C [PP3006] | A (a compound having 10 or more and less than 20 is denoted as A) | A (a compound having 10 or more and less than 20 is denoted as A) | –
5 | 0.1 nM | – | CCC(CC)[C@H]1C(=O)N(C)[C@H](C(=O)N(C)C)CC(=O)N(C)[C@H]2CCC/C=C/c3ccc(cc3)C[C@@H](C(=O)N(C)CC(=O)N[C@@H](CCc3cc(F)c(C(F)(F)F)c(F)c3)C(=O)N3C[C@H](OC(C)C)C[C@H]3C(=O)NC3(CC(C)(C)C3)C(=O)N1C)N1CC/C=C\C[C@@H](C1=O)N(C)C(=O)CN(C)C(=O)[C@H]([C@@H](C)CC)NC2=O [PP2594] | – | – | NRAS/KRAS (ratio of KD value with respect to GDP-bound NRAS wild-type protein to KD value with respect to KRAS) [1]: A (a compound having 10 or more and less than 20 is denoted as A); HRAS/KRAS (ratio of KD value with respect to GDP-bound HRAS wild-type protein to KD value with respect to KRAS) [2]: A (a compound having 10 or more and less than 20 is denoted as A)
6 | – | – | CCO[C@@H]1C[C@H]2C(=O)NC3(CCC3)C(=O)N(C)[C@@H](C3CCCC3)C(=O)N(C)[C@H](C(=O)N(CC)CC)CC(=O)N(C)[C@@H](C)C(=O)N[C@@H]([C@@H](C)CC)C(=O)N(C)CC(=O)N(C)[C@H]3C/C=C\CCN(C3=O)[C@@H](Cc3ccc(C(F)(F)F)cc3)C(=O)N(C)CC(=O)N[C@@H](CCc3cc(F)c(C(F)(F)F)c(F)c3)C(=O)N2C1 [PP1308, (2S,8S,12R,14S,20S,23S,27S,30S,36S,38Z)-20-cyclopentyl-8-[2-[3,5-difluoro-4-(trifluoromethyl)phenyl]ethyl]-12-ethoxy-N,N-diethyl-4,19,22,26,27,32,35-heptamethyl-30-[(1S)-1-methylpropyl]-3,6,9,15,18,21,25,28,31,34,42-undecaoxo-2-[[4-(trifluoromethyl)phenyl]methyl]spiro[1,4,7,10,16,19,22,26,29,32,35-undecazatricyclo[34.5.1.0^10,14]dotetracont-38-ene-17,1′-cyclobutane]-23-carboxamide] | – | – | NRAS/KRAS (ratio of KD value for NRAS to KD value for KRAS) [1, 7]: A (a compound having 10 or more and less than 20 is denoted as A); HRAS/KRAS (ratio of KD value for HRAS to KD value for KRAS) [2, 8]: A (a compound having 10 or more and less than 20 is denoted as A); Kd [3, 9]: 0.1 nM
7 | – | 0.089 nM | CCO[C@@H]1C[C@H]2C(=O)NC3(CC(C)(C)C3)C(=O)N(C)[C@@H](C3CCCC3)C(=O)N(C)[C@H](C(=O)N(C)CC)CC(=O)N(C)[C@@H](C3CC3)C(=O)N[C@@H]([C@@H](C)CC)C(=O)N(C)CC(=O)N(C)[C@H]3C/C=C\CCN(C3=O)[C@@H](Cc3ccc(C(F)(F)F)cc3)C(=O)N(C)CC(=O)N[C@@H](CCc3cc(F)c(C(F)(F)F)c(F)c3)C(=O)N2C1 [PP2036] | A (a compound having 10 or more and less than 20 is denoted as A) | A (a compound having 10 or more and less than 20 is denoted as A) | –
8 | 1.3 nM | – | CCCN1C(=O)CN(C)C(=O)CN(CC)C(=O)[C@H]([C@@H](C)CC)NC(=O)[C@H](CC(C)C)N(C)C(=O)C[C@@H](C(=O)N(C)C)NC(=O)[C@H](C2CCCC2)N(C)C(=O)C2(CCCC2)NC(=O)[C@@H]2CCCN2C(=O)[C@H](CCc2ccc(C(F)(F)F)c(Cl)c2)NC(=O)CN(C)C(=O)[C@@H]1Cc1ccc(C(F)(F)F)cc1 [PP0367] ([NMeL]I[NEtG][Sar][NPrPhe(4-CF3)][Sar][hPhe(3-Cl-4-CF3)]P[Ac5c][NMeGly(cPent)]D-NMe2; lactam N-11) | B (a compound having 3 or more and less than 10 is denoted as B) | B (a compound having 3 or more and less than 10 is denoted as B) | –
9 | – | 0.99 nM | CCO[C@@H]1C[C@H]2C(=O)NC3(CCC3)C(=O)N(C)[C@@H](C3CCCC3)C(=O)N(CCC3CCCC3)[C@H](C(=O)N(C)C)CC(=O)N(C)[C@@H](CC)C(=O)N[C@@H]([C@@H](C)CC)C(=O)N(C)CC(=O)N(C)[C@H]3C/C=C\CCN(C3=O)[C@@H](Cc3ccc(C(F)(F)F)cc3)C(=O)N(C)CC(=O)N[C@@H](CCc3cc(F)c(C(F)(F)F)c(F)c3)C(=O)N2C1 [PP0982] | AA (a compound having 20 or more is denoted as AA) | A (a compound having 10 or more and less than 20 is denoted as A) | –
10 | 0.018 nM | – | CCCN1C(=O)CN(C)C(=O)CN(C)C(=O)[C@H]([C@@H](C)CC)NC(=O)[C@H](CC(C)C)N(C)C(=O)C[C@@H](C(=O)N(C)C)N(C)C(=O)[C@H](C2CCCC2)N(C)C(=O)C2(CCCC2)NC(=O)[C@@H]2C[C@@H](OCC)CN2C(=O)[C@H](CCc2ccc(C(F)(F)F)c(Cl)c2)NC(=O)CN(C)C(=O)[C@@H]1Cc1ccc(C(F)(F)F)cc1 [PP0415] ([NMeL]I[Sar][Sar][NPrPhe(4-CF3)][Sar][hPhe(3-Cl-4-CF3)][Hyp](Et)[Ac5c][NMeGly(cPent)][NMeD]-NMe2; lactam N-11) | – | – | NRAS/KRAS (ratio of KD value with respect to NRAS to KD value with respect to KRAS) [1, 5]: B (a compound having 3 or more and less than 10 is denoted as B); HRAS/KRAS (ratio of KD value with respect to HRAS to KD value with respect to KRAS) [2, 6]: B (a compound having 3 or more and less than 10 is denoted as B)
11 | – | – | CCO[C@@H]1C[C@H]2C(=O)NC3(CCC3)C(=O)N(C)[C@@H](C3CCCC3)C(=O)N(C)[C@H](C(=O)N(C)CCOC)CC(=O)N(C)[C@@H](CC(C)C)C(=O)N[C@@H]([C@@H](C)CC)C(=O)N(C)CC(=O)N(C)[C@H]3C/C=C\CCN(C3=O)[C@@H](Cc3ccc(C(F)(F)F)cc3)C(=O)N(C)CC(=O)N[C@@H](CCc3ccc(Cl)c(Cl)c3)C(=O)N2C1 [PP1326] | – | – | NRAS/KRAS (ratio of KD value for NRAS to KD value for KRAS) [1, 7]: AA (a compound having 20 or more is denoted as AA); HRAS/KRAS (ratio of KD value for HRAS to KD value for KRAS) [2, 8]: A (a compound having 10 or more and less than 20 is denoted as A); Kd [3, 9]: 0.27 nM

Row | Structure (SMILES) | Kd [3, 4] | Kd ([3]; SPR, Single Cycle Kinetics) | NRAS/KRAS (ratio of KD value for NRAS to KD value for KRAS) [1, 5] | HRAS/KRAS (ratio of KD value for HRAS to KD value for KRAS) [2, 6] | also measured
12 | CCO[C@@H]1C[C@H]2C(=O)NC3(CCC3)C(=O)N(C)[C@@H](C3CCCC3)C(=O)N(C)[C@H](C(=O)N3CCCCC3)CC(=O)N(C)[C@H]3CCC/C=C/c4ccc(cc4)C[C@@H](C(=O)N(C)CC(=O)N[C@@H](CCc4cc(F)c(C(F)(F)F)c(F)c4)C(=O)N2C1)N1CC/C=C\C[C@@H](C1=O)N(C)C(=O)CN(C1CC1)C(=O)[C@H]([C@@H](C)CC)NC3=O [PP2954] | 0.37 nM | – | – | – | NRAS/KRAS (ratio of KD value with respect to GDP-bound NRAS wild-type protein to KD value with respect to KRAS) [1]: A (a compound having 10 or more and less than 20 is denoted as A); HRAS/KRAS (ratio of KD value with respect to GDP-bound HRAS wild-type protein to KD value with respect to KRAS) [2]: A (a compound having 10 or more and less than 20 is denoted as A)
